From patent US9884850B2, “Pyrimidine hydroxy amide compounds as HDAC6 selective inhibitors” (Acetylon Pharmaceuticals, Inc., priority 2014, dated 2018) come the findings set out here.

Molecules are shown by their SMILES. Entries after “also recorded” stand apart in the source; their conditions may differ.

In the experiment the test system is taxol induced neuropathic pain model in rats. Briefly: Taxol induced neuropathic pain study in rats (Von Frey testing). The format is in vivo, rat. As to conditions: taxol treated rats, 1, 3, 10 mg/kg PO b.i.d. The method, then:
This study included a histology endpoint in addition to the von Frey testing for paw sensitivity.
Neuropathic pain is induced by a 0.5 ml/kg injection of Taxol (2 mg/kg) administered IP on days 0-12. The development of neuropathic pain is confirmed by measuring mechanical allodynia (Von Frey test) on study day 13.
Allodynic response to tactile stimulation is assessed using the Von Frey apparatus (Touch Test®).
The rat will be placed in an enclosure and positioned on a metal mesh surface, but allowed to move freely. The rats' cabins are covered with red cellophane to diminish environmental disturbances. The test begins after a cessation of exploratory behavior. The set of Von Frey monofilaments provide an approximate logarithmic scale of actual force and a linear scale of perceived intensity.
The operating principle: when the tip of a fiber of given length and diameter is pressed against the skin at right angles, the force of application increases as long as the researcher continues to advance the probe until the fiber bends. After the fiber bends, the probe continues to advance, causing the fiber to bend more, but without additional force being applied. […] The Touch Test™ Sensory Evaluator can be used on the plantar surfaces of the rat's foot. The animal indicates sensation by pulling back its paw. […]

Consider `O=C(NO)c1cnc(NC2(c3ccccc3)CCC(F)(F)CC2)nc1` [Compound 003], for which the “Effect on nociception / tactile allodynia (Von Frey)” value is “completely reversed nociception; also recorded: reduced tactile allodynia”.
